# Measured values from ChEMBL document CHEMBL2375273, “Design, synthesis and evaluation of tacrine-flurbiprofen-nitrate trihybrids as novel anti-Alzheimer's disease agents” (Bioorg Med Chem, 2013).
# Key:
# Acetylcholinesterase [1] = target: T1, Acetylcholinesterase (Electrophorus electricus, UniProt O42275)
# Description: Inhibition of electric eel AChE using acetylcholine as substrate preincubated for 5 mins prior to substrate addition measured after 2 mins by Ellman's method
# Cholinesterase [2] = target: T2, Cholinesterase (Equus caballus, UniProt P81908)
# Description: Inhibition of equine serum BChE using acetylcholine as substrate preincubated for 5 mins prior to substrate addition measured after 2 mins by Ellman's method
# [3] = buffer, pH 7.4, 4 h
# Description: Chemical stability of the compound in phosphate buffer assessed as nitrite release after 4 hrs at pH 7.4 by Griess method
# Acetylcholinesterase [4] = target: T1, Acetylcholinesterase; assay: Mixed-type inhibition of electric eel AChE by Lineweaver Burk reciprocal plot analysis in presence of acetylcholine
# Cholinesterase [5] = target: T2, Cholinesterase; assay: Competitive inhibition of equine serum BChE by Lineweaver Burk reciprocal plot analysis in presence of acetylcholine
# [6] = Cytotoxicity against Wistar rat primary cortical neurons at 1 uM after 24 hrs by MTT assay; type: cell-based; conditions: cerebral cortex neuron
# T1 sequence (O42275 whole entry): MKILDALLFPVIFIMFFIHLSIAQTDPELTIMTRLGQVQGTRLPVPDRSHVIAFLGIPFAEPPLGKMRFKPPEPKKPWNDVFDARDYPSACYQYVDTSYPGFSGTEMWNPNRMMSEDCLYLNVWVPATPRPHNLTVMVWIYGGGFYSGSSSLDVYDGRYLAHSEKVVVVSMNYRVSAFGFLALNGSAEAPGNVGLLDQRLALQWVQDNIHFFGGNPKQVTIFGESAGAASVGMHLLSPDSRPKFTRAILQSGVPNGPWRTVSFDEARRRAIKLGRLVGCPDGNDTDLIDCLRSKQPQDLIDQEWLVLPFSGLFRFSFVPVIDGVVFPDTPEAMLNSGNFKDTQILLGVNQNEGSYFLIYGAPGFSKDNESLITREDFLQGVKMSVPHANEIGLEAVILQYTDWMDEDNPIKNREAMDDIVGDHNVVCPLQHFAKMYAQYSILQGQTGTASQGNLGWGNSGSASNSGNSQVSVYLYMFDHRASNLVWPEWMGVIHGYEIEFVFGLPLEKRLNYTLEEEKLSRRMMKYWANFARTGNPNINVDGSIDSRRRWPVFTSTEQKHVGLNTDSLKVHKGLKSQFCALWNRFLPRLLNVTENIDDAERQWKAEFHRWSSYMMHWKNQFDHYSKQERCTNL
# T2 sequence (P81908 whole entry): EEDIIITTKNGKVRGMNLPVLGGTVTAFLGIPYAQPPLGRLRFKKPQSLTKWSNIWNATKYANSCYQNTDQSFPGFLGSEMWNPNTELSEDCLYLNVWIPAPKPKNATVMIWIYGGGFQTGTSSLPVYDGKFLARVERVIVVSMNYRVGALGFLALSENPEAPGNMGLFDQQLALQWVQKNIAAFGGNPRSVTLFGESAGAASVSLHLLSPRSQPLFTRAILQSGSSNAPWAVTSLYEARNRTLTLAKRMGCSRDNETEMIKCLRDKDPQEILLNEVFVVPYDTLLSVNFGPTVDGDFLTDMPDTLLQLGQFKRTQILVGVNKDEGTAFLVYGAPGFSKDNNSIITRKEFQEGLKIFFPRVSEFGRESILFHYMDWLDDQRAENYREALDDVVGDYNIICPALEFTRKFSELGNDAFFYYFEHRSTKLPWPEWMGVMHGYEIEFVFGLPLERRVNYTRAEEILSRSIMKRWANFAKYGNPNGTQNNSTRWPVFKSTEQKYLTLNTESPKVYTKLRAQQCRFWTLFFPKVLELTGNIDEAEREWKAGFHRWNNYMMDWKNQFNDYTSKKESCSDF
structure (smiles),measurement,setting,value
CC(C(=O)NCCCCCCCCNc1c2c(nc3ccccc13)CCCC2)c1ccc(-c2ccc(OCCCCO[N+](=O)[O-])cc2)c(F)c1 (configuration not stated),IC50,Acetylcholinesterase [1],70.9 nM
same,IC50,Cholinesterase [2],1.3 nM
same,Drug metabolism,[3],0.36 µg/mL
CC(C(=O)NCCCCCCNc1c2c(nc3ccccc13)CCCC2)c1ccc(-c2ccc(OCCO[N+](=O)[O-])cc2)c(F)c1 (configuration not stated),IC50,Acetylcholinesterase [1],9.1 nM
same,IC50,Cholinesterase [2],2.5 nM
same,Ki,Acetylcholinesterase [4],16.1 nM
same,Drug metabolism,[3],0.348 µg/mL
same,Ki,Cholinesterase [5],1.7 nM
CC(C(=O)NCCCCCCNc1c2c(nc3ccccc13)CCCC2)c1ccc(-c2ccccc2)c(F)c1 (configuration not stated),IC50,Acetylcholinesterase [1],19.3 nM
same,IC50,Cholinesterase [2],3.7 nM
CC(C(=O)NCCCCCCCCNc1c2c(nc3ccccc13)CCCC2)c1ccc(-c2ccc(OCCO[N+](=O)[O-])cc2)c(F)c1 (configuration not stated),IC50,Acetylcholinesterase [1],12.5 nM
same,IC50,Cholinesterase [2],1 nM
same,Drug metabolism,[3],0.565 µg/mL
CC(C(=O)NCCCCCCCCNc1c2c(nc3ccccc13)CCCC2)c1ccc(-c2ccc(OCCCCCCO[N+](=O)[O-])cc2)c(F)c1 (configuration not stated),IC50,Acetylcholinesterase [1],226 nM
same,IC50,Cholinesterase [2],1.5 nM
same,Drug metabolism,[3],0.34 µg/mL
CC(C(=O)NCCCCCCNc1c2c(nc3ccccc13)CCCC2)c1ccc(-c2ccc(OCCCO[N+](=O)[O-])cc2)c(F)c1 (configuration not stated),IC50,Acetylcholinesterase [1],18.7 nM
same,IC50,Cholinesterase [2],2.4 nM
same,Drug metabolism,[3],0.353 µg/mL
O=[N+]([O-])O[C@@H]1CO[C@H]2[C@@H]1OC[C@@H]2O [ISOSORBIDE MONONITRATE],Drug metabolism,[3],0.412 µg/mL
CC(C(=O)NCCCCCCCCNc1c2c(nc3ccccc13)CCCC2)c1ccc(-c2ccccc2)c(F)c1 (configuration not stated),IC50,Acetylcholinesterase [1],34.5 nM
same,IC50,Cholinesterase [2],2.1 nM
CC(C(=O)NCCCCCCCCNc1c2c(nc3ccccc13)CCCC2)c1ccc(-c2ccc(OCCCO[N+](=O)[O-])cc2)c(F)c1 (configuration not stated),IC50,Acetylcholinesterase [1],30.6 nM
same,IC50,Cholinesterase [2],1.6 nM
same,Drug metabolism,[3],0.353 µg/mL
CC(C(=O)NCCCCCCNc1c2c(nc3ccccc13)CCCC2)c1ccc(-c2ccc(OCCCCO[N+](=O)[O-])cc2)c(F)c1 (configuration not stated),IC50,Acetylcholinesterase [1],27.4 nM
same,IC50,Cholinesterase [2],1.3 nM
same,Drug metabolism,[3],0.36 µg/mL
CC(C(=O)NCCCCCCNc1c2c(nc3ccccc13)CCCC2)c1ccc(-c2ccc(OCCCCCCO[N+](=O)[O-])cc2)c(F)c1 (configuration not stated),Activity,[6],Non-toxic
same,IC50,Acetylcholinesterase [1],31.1 nM
same,IC50,Cholinesterase [2],0.6 nM
same,Drug metabolism,[3],0.283 µg/mL
